Source: patent publication US20230357310A1, “Saponin derivatives with improved therapeutic window” (priority 2019, published 2023)

Columns and labels:
[1] = Critical micellar concentration (ANS fluorescence); assay type: physicochemical; conditions: for CMC: SO saponins, determined in PBS, Table A7; for CMC compared with native (underivatised) saponin: comparison in words
Method: The critical micellar concentration (CMC) of saponins derived from Saponaria officinalis (SO) (Table A7) and derived from Quillaja saponaria (QS) (Table A8, and Table A9) was determined by the method of DeVendittis et al. (A fluorimetric method for the estimation of the critical micelle concentration of surfactants, Analytical Biochemistry, Volume 115, Issue 2, August 1981, Pages 278-286) as follows:
The emission spectrum of 8-Anilinonaphthalene-1-sulfonic acid (ANS) in either purified water (MQ) or PBS (Dulbecco's PBS+/+) was determined at dry weight concentrations of saponins ranging from 1 to 1400 μM to cover the range below and above the CMC. Above the CMC, the fluorescence yield of ANS increases and the wavelength of maximum emission decreases due to portioning of the fluorescent dye into micelles. Fluorescence yields were recorded on a Fluoroskan Ascent FL (Thermo Scientific) at an excitation wavelength of 355 nm, and an emission wavelength of 460 nm. 6 μg at a concentration of 75.86 μM of ANS were used per sample and measurement.

[2] = system: EGFR expressing cells (HeLa); assay: cells; conditions: summary statement in the description

Row | Structure (SMILES) | CMC compared with native (underivatised) saponin [1] | endosomal escape enhancing activity (enhancement of cytotoxicity of ADC / effector molecules) [2] | other results
1 | CC1OC(OC2C(C)OC(OC(=O)C34CCC(C)(C)CC3C3=CCC5C6(C)CCC(OC7OC(C(=O)O)C(O)C(OC8OCC(O)C(O)C8O)C7OC7OC(CO)C(O)C(O)C7O)C(C)(C=NNC(=O)CCCCCN7C(=O)C=CC7=O)C6CCC5(C)C3(C)CC4O)C(OC3OC(C)C(OC4OCC(O)C(OC5OC(CO)C(O)C(O)C5O)C4O)C(O)C3O)C2O)C(O)C(OC2OCC(O)C(O)C2O)C1O (stereo not drawn) [SO1861-(Ald-EMCH)-(Ac—OH)] |  |  | CMC [1]: >300 µM; CMC compared with native (underivatised) saponin ([1]; listed as SO1861-(Ald-EMCH)—(Ac—OH)): increased CMC values
2 | CC(=O)OC1C(C)OC(OC2C(C)OC(OC(=O)[C@]34CCC(C)(C)CC3C3=CCC5[C@@]6(C)CC[C@H](OC7OC(C(=O)NC(C)(CO)CO)C(O)C(OC8OCC(O)C(O)C8O)C7OC7OC(CO)C(O)C(O)C7O)[C@@](C)(CO)C6CC[C@@]5(C)[C@]3(C)C[C@H]4O)C(OC3OC(C)C(OC4OCC(O)C(OC5OC(CO)C(O)C(O)C5O)C4O)C(O)C3O)C2O)C(O)C1OC1OCC(O)C(O)C1O (stereo partly drawn) [SO1861-(Ald-OH)-(Glu-AMPD)] | lower CMC values |  | 
3 | CC(=O)OC1C(C)OC(OC2C(C)OC(OC(=O)C34CCC(C)(C)CC3C3=CCC5C6(C)CCC(OC7OC(C(=O)NC(C)(CO)CO)C(O)C(OC8OCC(O)C(O)C8O)C7OC7OC(CO)C(O)C(O)C7O)C(C)(C=NNC(=O)CCCCCN7C(=O)C=CC7=O)C6CCC5(C)C3(C)CC4O)C(OC3OC(C)C(OC4OCC(O)C(OC5OC(CO)C(O)C(O)C5O)C4O)C(O)C3O)C2O)C(O)C1OC1OCC(O)C(O)C1O (stereo not drawn) [SO1861-(Ald-EMCH)-(Glu-AMPD)] | lower CMC values |  | CMC [1]: >30 µM
4 | CC1OC(OC2C(C)OC(OC(=O)[C@]34CCC(C)(C)CC3C3=CCC5[C@@]6(C)CC[C@H](OC7OC(C(=O)NC(C)(CO)CO)C(O)C(OC8OCC(O)C(O)C8O)C7OC7OC(CO)C(O)C(O)C7O)[C@@](C)(C=O)C6CC[C@@]5(C)[C@]3(C)C[C@H]4O)C(OC3OC(C)C(OC4OCC(O)C(OC5OC(CO)C(O)C(O)C5O)C4O)C(O)C3O)C2O)C(O)C(OC2OCC(O)C(O)C2O)C1O (stereo partly drawn) [Molecule 11] |  | display activity | 
5 | CC(=O)OC1C(C)OC(OC2C(C)OC(OC(=O)[C@]34CCC(C)(C)CC3C3=CCC5[C@@]6(C)CC[C@H](OC7OC(C(=O)NC(C)(CO)CO)C(O)C(OC8OCC(O)C(O)C8O)C7OC7OC(CO)C(O)C(O)C7O)[C@@](C)(C=O)C6CC[C@@]5(C)[C@]3(C)C[C@H]4O)C(OC3OC(C)C(OC4OCC(O)C(OC5OC(CO)C(O)C(O)C5O)C4O)C(O)C3O)C2O)C(O)C1OC1OC(C)C(O)C(O)C1O (stereo partly drawn) [SO1861-Glu-AMPD] | lower CMC values |  | 
6 | CC1OC(OC2C(C)OC(OC(=O)[C@]34CCC(C)(C)CC3C3=CCC5[C@@]6(C)CC[C@H](OC7OC(C(=O)NC(C)(CO)CO)C(O)C(OC8OCC(O)C(O)C8O)C7OC7OC(CO)C(O)C(O)C7O)[C@@](C)(C=O)C6CC[C@@]5(C)[C@]3(C)C[C@H]4O)C(OC3OC(C)C(OC4OCC(O)C(OC5OC(CO)C(O)C(O)C5O)C4O)C(O)C3O)C2O)C(O)C(OC2OCC(O)C(O)C2O)C1O (stereo partly drawn) [SO1861-(Ac—OH)-(Glu-AMPD)] | lower CMC values |  | 
7 | CC(=O)OC1C(C)OC(OC2C(C)OC(OC(=O)[C@]34CCC(C)(C)CC3C3=CCC5[C@@]6(C)CC[C@H](OC7OC(C(=O)NCCN8C(=O)C=CC8=O)C(O)C(OC8OCC(O)C(O)C8O)C7OC7OC(CO)C(O)C(O)C7O)[C@@](C)(CO)C6CC[C@@]5(C)[C@]3(C)C[C@H]4O)C(OC3OC(C)C(OC4OCC(O)C(OC5OC(CO)C(O)C(O)C5O)C4O)C(O)C3O)C2O)C(O)C1OC1OCC(O)C(O)C1O (stereo partly drawn) [Molecule 20] |  | have the capacity to enhance the cytotoxic effect | 
8 | CC1OC(OC2C(C)OC(OC(=O)[C@]34CCC(C)(C)CC3C3=CCC5[C@@]6(C)CC[C@H](OC7OC(C(=O)NCCN8C(=O)C=CC8=O)C(O)C(OC8OCC(O)C(O)C8O)C7OC7OC(CO)C(O)C(O)C7O)[C@@](C)(C=O)C6CC[C@@]5(C)[C@]3(C)C[C@H]4O)C(OC3OC(C)C(OC4OCC(O)C(OC5OC(CO)C(O)C(O)C5O)C4O)C(O)C3O)C2O)C(O)C(OC2OCC(O)C(O)C2O)C1O (stereo partly drawn) [Molecule 19] |  | display activity | 
9 | CC(=O)OC1C(C)OC(OC2C(C)OC(OC(=O)[C@]34CCC(C)(C)CC3C3=CCC5[C@@]6(C)CC[C@H](OC7OC(C(=O)NCCN8C(=O)C=CC8=O)C(O)C(OC8OCC(O)C(O)C8O)C7OC7OC(CO)C(O)C(O)C7O)[C@@](C)(C=O)C6CC[C@@]5(C)[C@]3(C)C[C@H]4O)C(OC3OC(C)C(OC4OCC(O)C(OC5OC(CO)C(O)C(O)C5O)C4O)C(O)C3O)C2O)C(O)C1OC1OCC(O)C(O)C1O (stereo partly drawn) [Molecule 18] |  | display activity | 
10 | CC(=O)OC1C(C)OC(OC2C(C)OC(OC(=O)C34CCC(C)(C)CC3C3=CCC5C6(C)CCC(OC7OC(C(=O)NC(C)(CO)CO)C(O)C(OC8OCC(O)C(O)C8O)C7OC7OC(CO)C(O)C(O)C7O)C(C)(C=NNC(=O)CCCCCN7C(=O)C=CC7=O)C6CCC5(C)C3(C)CC4O)C(OC3OC(C)C(OC4OCC(O)C(OC5OC(CO)C(O)C(O)C5O)C4O)C(O)C3O)C2O)C(O)C1OC1OCC(O)C(O)C1O (stereo not drawn) [Molecule 14] |  | have the capacity to enhance the cytotoxic effect | 
11 | CC1OC(OC2C(C)OC(OC(=O)[C@]34CCC(C)(C)CC3C3=CCC5[C@@]6(C)CC[C@H](OC7OC(C(=O)NCCN8C(=O)C=CC8=O)C(O)C(OC8OCC(O)C(O)C8O)C7OC7OC(CO)C(O)C(O)C7O)[C@@](C)(C=O)C6CC[C@@]5(C)[C@]3(C)C[C@H]4O)C(OC3OC(C)C(OC4OCC(O)C(OC5OC(CO)C(O)C(O)C5O)C4O)C(O)C3O)C2O)C(O)C(OC2OCC(O)C(O)C2O)C1O (stereo partly drawn) [SO1861-(Glu-AEM)-(Ac—OH)] | lower CMC values |  | 
12 | CC(=O)OC1C(C)OC(OC2C(C)OC(OC(=O)[C@]34CCC(C)(C)CC3C3=CCC5[C@@]6(C)CC[C@H](OC7OC(C(=O)NCCN8C(=O)C=CC8=O)C(O)C(OC8OCC(O)C(O)C8O)C7OC7OC(CO)C(O)C(O)C7O)[C@@](C)(CO)C6CC[C@@]5(C)[C@]3(C)C[C@H]4O)C(OC3OC(C)C(OC4OCC(O)C(OC5OC(CO)C(O)C(O)C5O)C4O)C(O)C3O)C2O)C(O)C1OC1OCC(O)C(O)C1O (stereo partly drawn) [SO1861-(Glu-AEM)-(Ald-OH)] | lower CMC values |  | 
13 | CC1OC(OC2C(C)OC(OC(=O)[C@]34CCC(C)(C)CC3C3=CCC5[C@@]6(C)CC[C@H](OC7OC(C(=O)O)C(O)C(OC8OCC(O)C(O)C8O)C7OC7OC(CO)C(O)C(O)C7O)[C@@](C)(CO)C6CC[C@@]5(C)[C@]3(C)C[C@H]4O)C(OC3OC(C)C(OC4OCC(O)C(OC5OC(CO)C(O)C(O)C5O)C4O)C(O)C3O)C2O)C(O)C(OC2OCC(O)C(O)C2O)C1O (stereo partly drawn) [SO1861-(Ald-OH)-(Ac—OH)] |  |  | CMC [1]: >280 µM; CMC compared with native (underivatised) saponin ([1]; listed as SO1861-(Ald-OH)—(Ac—OH)): increased CMC values
14 | CC1OC(OC2C(C)OC(OC(=O)[C@]34CCC(C)(C)CC3C3=CCC5[C@@]6(C)CC[C@H](OC7OC(C(=O)NCCN8C(=O)C=CC8=O)C(O)C(OC8OCC(O)C(O)C8O)C7OC7OC(CO)C(O)C(O)C7O)[C@@](C)(CO)C6CC[C@@]5(C)[C@]3(C)C[C@H]4O)C(OC3OC(C)C(OC4OCC(O)C(OC5OC(CO)C(O)C(O)C5O)C4O)C(O)C3O)C2O)C(O)C(OC2OCC(O)C(O)C2O)C1O (stereo partly drawn) [SO1861-(Glu-AEM)-(Ald-OH)-(Ac—OH)] |  |  | CMC [1]: >150 µM
15 | CC(=O)OC1C(C)OC(OC2C(C)OC(OC(=O)[C@]34CCC(C)(C)CC3C3=CCC5[C@@]6(C)CC[C@H](OC7OC(C(=O)O)C(O)C(OC8OCC(O)C(O)C8O)C7OC7OC(CO)C(O)C(O)C7O)[C@@](C)(CO)C6CC[C@@]5(C)[C@]3(C)C[C@H]4O)C(OC3OC(C)C(OC4OCC(O)C(OC5OC(CO)C(O)C(O)C5O)C4O)C(O)C3O)C2O)C(O)C1OC1OCC(O)C(O)C1O (stereo partly drawn) [SO1861-Ald-OH] | higher CMC values |  | 
16 | CC(=O)OC1C(C)OC(OC2C(C)OC(OC(=O)[C@]34CCC(C)(C)CC3C3=CCC5[C@@]6(C)CC[C@H](OC7OC(C(=O)NC(C)(CO)CO)C(O)C(OC8OCC(O)C(O)C8O)C7OC7OC(CO)C(O)C(O)C7O)[C@@](C)(CO)C6CC[C@@]5(C)[C@]3(C)C[C@H]4O)C(OC3OC(C)C(OC4OCC(O)C(OC5OC(CO)C(O)C(O)C5O)C4O)C(O)C3O)C2O)C(O)C1OC1OCC(O)C(O)C1O (stereo partly drawn) [Molecule 9] |  | have the capacity to enhance the cytotoxic effect | 
17 | CC(=O)OC1C(C)OC(OC2C(C)OC(OC(=O)C34CCC(C)(C)CC3C3=CCC5C6(C)CCC(OC7OC(C(=O)O)C(O)C(OC8OCC(O)C(O)C8O)C7OC7OC(CO)C(O)C(O)C7O)C(C)(C=NNC(=O)CCCCCN7C(=O)C=CC7=O)C6CCC5(C)C3(C)CC4O)C(OC3OC(C)C(OC4OCC(O)C(OC5OC(CO)C(O)C(O)C5O)C4O)C(O)C3O)C2O)C(O)C1OC1OCC(O)C(O)C1O (stereo not drawn) [Molecule 2] | increased CMC |  | 
18 | CC1OC(OC2C(C)OC(OC(=O)[C@]34CCC(C)(C)CC3C3=CCC5[C@@]6(C)CC[C@H](OC7OC(C(=O)O)C(O)C(OC8OCC(O)C(O)C8O)C7OC7OC(CO)C(O)C(O)C7O)[C@@](C)(C=O)C6CC[C@@]5(C)[C@]3(C)C[C@H]4O)C(OC3OC(C)C(OC4OCC(O)C(OC5OC(CO)C(O)C(O)C5O)C4O)C(O)C3O)C2O)C(O)C(OC2OCC(O)C(O)C2O)C1O (stereo partly drawn) [SO1861-Ac—OH] | higher CMC values |  | 
